This is an account of results in US20090221538A1, “METHODS OF TREATING MULTIPLE SCLEROSIS BY ADMINISTERING PULSE DOSE CALCITRIOL” (priority 2008, published 2009).

Data set [1] concerns B10.PL mice with acute EAE. The experiment in a line: Treatment of MBP-induced acute EAE in B10.PL mice, daily clinical EAE disability score. It is filed as in vivo. Also on record: key to cumulative disability (sum of daily disability scores; mean) / Cumulative disability / EAE severity (initial) / Remission (minimum) / EAE severity (final) / EAE severity (decrease): EAE score 0 = normal to 5 = moribund; cumulative = sum of daily scores. As for the experimental part: Breeding pairs of B10.PL-H2^uH2-T18^a/(73NS)/SnJ (hereafter B10.PL) mice were purchased from the Jackson Laboratory (Bar Harbor, Me.). The experimental B10.PL mice were either bred in the pathogen-free mouse colony at the University of Wisconsin Department of Biochemistry, or purchased from the Jackson Laboratory. Mice were housed at 23° C. with 40-60% humidity, 12 hr light-dark cycles, and ad libidum access to water. Unless stated otherwise, the mice were fed Lab Diet #5008 (PMI Nutrition International, Inc., Brentwood, Mo.) containing 0.33 μg/d vitamin D3 and 1% calcium. Experiments used male and female mice aged 6-8 wks (age- and sex-matched within experiments). The University of Wisconsin College of Agricultural and Life Sciences Institutional Animal Care and Use Committee approved all of the experimental protocols.
Bovine myelin basic protein (Sigma Chemical Co., St. Louis, Mo.) was dissolved at 2 mg/mL in 0.1 N acetic acid and emulsified with Complete Freund's adjuvant containing heat-killed Mycobacterium tuberculosis H37 Ra solution (Difco). Each mouse was injected subcutaneously with 0.1 mL emulsion in each hind flank (400 micrograms of MBP per mouse). On the day of immunization and again 2 days later, 200 nanograms of pertussis toxin was injected into the peritoneum. Thereafter, clinical EAE signs were scored daily as follows: 0, normal; 1, limp tail; 1.5, partial paralysis of one hind limb; 2, partial paralysis of both hind limbs; 2.5 partial paralysis of one hind limb and complete paralysis of one hind limb; 3, paralysis of both hind limbs; 4, hind and fore limb paralysis; 5, moribund.
The vitamin D3 and 1,25-(OH)2D3 were obtained from Sigma Chemical Co. The vitamin D3 was dissolved in safflower oil and stored in the dark at 5° C. The 1,25-(OH)2D3 was dissolved in 100% ethanol (1 mg/mL) and stored in the dark under nitrogen gas at −20° C. The concentration of 1,25-(OH)2D3 was determined by spectral analysis. Animals with stage 2.3±0.3 were randomized into treatment groups. The details of the treatments are given in the figure legends and table footnotes. The synthetic diet used in some experiments was formulated to contain all essential nutrients except vitamin D3 and was prepared exactly as we described (Spach and Hayes, 2005, J. Immunol. 175:4119-4126). For experiments using supplementary vitamin D3, the placebo group was fed the synthetic diet ad libidum without added vitamin D3, whereas the vitamin D3-supplemented group was fed the synthetic diet ad libidum with vitamin D3 added in an amount to provide 1 μg/d, calculated based on a daily measured consumption of 4.0 g dry weight of diet per mouse. Fresh synthetic diet was provided three times per week. At several times during the study, mice were weighed and blood samples were obtained from the tail vein. At the conclusion of the study, the mice were euthanized, a blood sample was obtained, perfusion was done, and the spinal cords and optic nerves were removed. The spinal cords were flash frozen with liquid nitrogen and stored at −70° C. prior to 1,25-(OH)2D3 extraction. Alternatively, the spinal cords were divided into 6 equal sections, aligned vertically, snap frozen in O.C.T. compound (Sakura Finetek USA, Torrance, Calif.) and stored at −70° C. for histopathology. The blood was clotted, centrifuged, and the decanted serum was frozen at −70° C. prior to analysis.
Individual mice were analyzed and the mean and SD were calculated for each group of mice. Experiments were repeated at least once. The significance of differences between the group means was determined using the Mann-Whitney test (n≦16), Student's t-test (n>16), or Chi-squared test (binomial data); p<0.05 was considered significant.

The nature of another data set: Serum calcium analysis. In kind it is in vivo, mouse. Conditions: mice with EAE, 1 μg/day vitamin D3, end of the 28 day study. The method, then:
Blood was collected, clotted, and centrifuged (2,000×g for 10 min) at 6° C. The serum was decanted and stored at −20° C. The samples, standards, and buffer blanks (2 μL each) were aliquoted into duplicate wells of a 96-well plate. The calcium detection reagent was prepared according to the manufacturer's directions (Sigma Diagnostics. St. Louis, Mo.), and 0.25 mL was added to each well. The absorbance at 570 nm less the blank was measured 10 to 30 min later. The Ca^++ mmol/L serum was determined from a standard curve.

Data set [2] can be described thus: Serum 25-(OH)D3 radioimmunoassay. Conditions: mice with EAE (score 1.5±0.5), 1 μg/day vitamin D3, end of the 28 day study.
Procedure: The serum was extracted and the 25-(OH)D3 (DiaSorin, Stillwater, Minn.) and calcitriol (Nichols Institute Diagnostics, San Juan Capistrano, Calif.) concentrations were determined in duplicate with radioimmunoassay kits according to the manufacturer's protocols.
The test system of a further data set is MS. Conditions: cited from earlier work.
[3] abbreviates: female and male B10.PL mice, chow-fed, 0.5 (female) or 1.0 (male) nmol injected once, 14 days post treatment.

`C[C@H]1C[C@@H]2[C@H]([C@@H](O)C[C@@]3(C)[C@H]2CC[C@]3(O)C(=O)CO)[C@@]2(C)C=CC(=O)C=C12` [Methyl-prednisolone]: the “mice in which remission was induced” value in data set [1] (chow-fed male and female mice with EAE (score 2.3±0.4), 200 μg/d oral methyl-prednisolone) turned out to be 100%. Moreover, in data set [1] (chow-fed male and female mice with EAE, 200 μg/d oral methyl-prednisolone), the time to remission is 6 ± 2 days. Also, in data set [1] (setting [3]), the Cumulative disability came to 24.8 ± 6.9, the “EAE severity (decrease)” value is 0.8 ± 0.7, the “Remission (%)” value is given as 40% and the “Remission (days in)” value is reported as 3.0 ± 4.1 days. In data set [1] (setting [3]), the “Remission (days to)” value worked out at 3.0 ± 0.0 days. For the same molecule, the “EAE severity (initial)” value in data set [1] (female and male B10.PL mice, chow-fed, 0.5 (female) or 1.0 (male) nmol of steroid compound injected once, score at randomization) is listed as 2.0 ± 0.0.
`C=C1CC[C@H](O)C/C1=C/C=C1\CCC[C@]2(C)[C@@H]([C@H](C)CCCC(C)C)CC[C@@H]12` [vitamin D3]: the “effect on clinical disability in mice with EAE” value in data set [1] (1 μg/day vitamin D3, 28 day study) is recorded as “no effect”. Also, the “cumulative disability (sum of daily disability scores; mean)” value in data set [1] (mice with EAE, 1 μg/day vitamin D3, 28 day study, both groups) came out at 71±18. The mortality in data set [1] (mice with EAE, 1 μg/day vitamin D3, 28 day study, both groups (supplemented and un-supplemented)) is on record as 9-14%. In addition, the serum calcium levels in “Serum calcium analysis” was determined as 9.6 ± 1.5 mg/dL. Further, the “serum 25-(OH)D3” value in data set [2] was determined as 8217 nmol/L.
“Natalizumab: an integrin-specific monoclonal antibody (mAb)”: the adverse risks result in the data set with MS (human, in vivo) was “increased the risk of cardiac problems and fatal progressive multifocal leukoencephalopathy”. The “slowing of disability progression” value with MS (over two years) is listed as about 42%.
Take glatiramer acetate: in the data set on MS (RRMS, PPMS or SPMS patients), the disability progression entry is “did not slow disability progression”. Also, the “reduction of the relapse rate” value in the data set on MS (some relapsing-remitting MS (RRMS)) is given as about 35%.
